# In patent publication US6582717B1, “Drug delivery composition and device” (Massachusetts Institute of Technology, priority 2000, dated 2003):
# Assay: Encapsulation efficiency of drug in PLGA / cyclodextrin delivery matrix
# Type: physicochemical
# [1] = PLGA and Hydroxy-propyl β-Cyclodextrin
# [2] = PLGA and Methylated β-Cyclodextrin
SMILES,"Encapsulation Efficiency (%) (PGLA, no cyclodextrin)","Encapsulation Efficiency (amount encapsulated) (PGLA, no cyclodextrin) [µg]",Encapsulation Efficiency (%) [1],Encapsulation Efficiency (amount encapsulated) [1] [µg],Encapsulation Efficiency (%) [2],Encapsulation Efficiency (amount encapsulated) [2] [µg]
"[H]/N=C(\N/C(=N/[H])NCCCCCCNC(=N)NC(=N)Nc1ccc(Cl)cc1)Nc1ccc(Cl)cc1 [Chx, chlorhexidine]",(9.28%),185.7,(15.1%),302.8,(9.02%),180.5
"N=C(NCCCCCCNC(=N)NC(=N)Nc1ccc(Cl)cc1)NC(=N)Nc1ccc(Cl)cc1.O=C(O)[C@H](O)[C@@H](O)[C@H](O)[C@H](O)CO.O=C(O)[C@H](O)[C@@H](O)[C@H](O)[C@H](O)CO [ChxDg, chlorhexidine digluconate]",(10.2%),204.7,(6.1%),121.2,(11.5%),230.3
